Data: patent US20170253601A1, “Substituted Pyrrolidine Compounds” (EPIZYME, INC., priority 2014, published 2017)

molecular target: T1, SMYD2 (Homo sapiens, UniProt Q9NRG4); assay: SMYD2 Biochemical Assay (3H-SAM, biotinylated peptide substrate, Flashplate); conditions: IC50 values are an average of n = 1 to n = 50; read-out: SMYD2 Biochem IC50 (μM)*
T1 construct: Full length SMYD2 (NP 064582.2) was cloned; His6 (N, cleaved yes); FLAG (N); made in house; host or cells: Sf9 insect cells
Procedure, shortened: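 Methyltransferase activity tracked as 3H transfer from 10 nM 3H-SAM to 60 nM biotinylated peptide, counted after streptavidin Flashplate capture and normalised to DMSO and 1000 uM SAH controls. Enzyme: 1.5 nM full-length Sf9-expressed SMYD2, 30 min compound pre-incubation at room temperature, in Bicine pH 7.6 buffer with 2% DMSO; reactions quenched with 600 uM unlabelled SAM; IC50 from 3- or 4-parameter fit.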

T1 sequence (Q9NRG4 whole entry): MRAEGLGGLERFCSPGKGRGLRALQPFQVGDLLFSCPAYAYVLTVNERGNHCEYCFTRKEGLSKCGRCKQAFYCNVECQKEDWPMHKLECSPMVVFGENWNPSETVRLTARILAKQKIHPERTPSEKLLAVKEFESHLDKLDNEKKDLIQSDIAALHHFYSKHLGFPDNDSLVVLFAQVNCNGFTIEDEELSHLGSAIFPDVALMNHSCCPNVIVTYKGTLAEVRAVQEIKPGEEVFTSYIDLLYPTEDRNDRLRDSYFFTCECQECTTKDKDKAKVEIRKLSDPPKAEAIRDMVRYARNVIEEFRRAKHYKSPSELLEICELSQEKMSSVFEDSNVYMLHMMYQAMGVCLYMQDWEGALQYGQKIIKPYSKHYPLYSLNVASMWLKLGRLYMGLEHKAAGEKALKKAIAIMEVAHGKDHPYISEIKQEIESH

Q: Which IC50 does the source give for `C[C@@H]1CN(Cc2cc([N+](=O)[O-])ccc2F)C[C@H]1NC(=O)c1cc(C2CC2)on1` (racemic) [compound 179, (±)-trans-5-cyclopropyl-N-[1-[(2-fluoro-5-nitrophenyl)methyl]-4-methylpyrrolidin-3-yl]-1,2-oxazole-3-carboxamide] here?
A: > 50 µM

Q: With `C[C@@H]1CN(Cc2c[nH]cn2)C[C@H]1NC(=O)c1cc(C2CC2)on1` (racemic) [compound 180, (±)-trans-5-cyclopropyl-N-[1-(1H-imidazol-4-ylmethyl)-4-methylpyrrolidin-3-yl]-1,2-oxazole-3-carboxamide] as the compound, how does the IC50 read?
A: 42.5 µM

Q: How did the IC50 turn out when `COc1cc(CN2C[C@@H](C)[C@H](NC(=O)c3cc(C4CC4)on3)C2)cc(OC)c1` (racemic) [compound 181, (±)-trans-5-cyclopropyl-N-[1-[(3,5-dimethoxy-phenyl)methyl]-4-methylpyrrolidin-3-yl]-1,2-oxazole-3-carboxamide] was run?
A: > 50 µM

Q: For `Cc1nn(C)cc1CN1C[C@@H](C)[C@H](NC(=O)c2cc(C3CC3)on2)C1` (racemic) [compound 183, (±)-trans-5-cyclopropyl-N-[1-[(1,3-dimethyl-1H-pyrazol-4-yl)methyl]-4-methylpyrrolidin-3-yl]-1,2-oxazole-3-carboxamide], which IC50 is on record?
A: > 50 µM

Q: With `C[C@@H]1CN(Cc2ccnn2C)C[C@H]1NC(=O)c1cc(C2CC2)on1` (racemic) [compound 184, (±)-trans-5-cyclopropyl-N-[4-methyl-1-[(1-methyl-1H-pyrazol-5-yl)methyl]pyrrolidin-3-yl]-1,2-oxazole-3-carboxamide] as the compound, how does the IC50 read?
A: > 50 µM

Q: With `C[C@H]1CN(CC2CCCOC2)C[C@H]1NC(=O)c1cc(C2CC2)on1` (mixture of isomers) [compound 185, (±)-cis-5-cyclopropyl-N-[4-methyl-1-(oxan-3-ylmethyl)pyrrolidin-3-yl]-1,2-oxazole-3-carboxamide] as the compound, how does the IC50 read?
A: 4.92 µM

Q: How did the IC50 turn out when `CC[C@H]1CN(C)C[C@H]1NC(=O)c1cc(C2CC2)on1` (racemic) [compound 187, (±)-cis-5-cyclopropyl-N-[4-ethyl-1-methyl-pyrrolidin-3-yl]-1,2-oxazole-3-carboxamide] was run?
A: 18.1 µM

Q: Which IC50 does the source give for `CC[C@H]1CN(C(C)C)C[C@H]1NC(=O)c1cc(C2CC2)on1` (racemic) [compound 188, (±)-cis-5-cyclopropyl-N-[4-ethyl-1-(propan-2-yl)pyrrolidin-3-yl]-1,2-oxazole-3-carboxamide] here?
A: 15.9 µM

Q: Which IC50 does the source give for `CC(C)N1C[C@@H](C)[C@H](NC(=O)c2cc(C3CC3)on2)C1` (racemic) [compound 191, (±)-trans-5-cyclopropyl-N-[4-methyl-1-(propan-2-yl)pyrrolidin-3-yl]-1,2-oxazole-3-carboxamide] here?
A: 40.3 µM

Q: With `CC(C)c1cc(C(=O)N[C@@H]2CN(C(C)C)C[C@H]2C)no1` (racemic) [compound 192, (±)-trans-N-[4-methyl-1-(propan-2-yl)pyrrolidin-3-yl]-5-(propan-2-yl)-1,2-oxazole-3-carboxamide] as the compound, how does the IC50 read?
A: > 50 µM

Q: For `CC(C)c1cc(C(=O)N[C@@H]2CN(C(C)C)C[C@@H]2C)no1` (racemic) [compound 193, (±)-cis-N-[4-methyl-1-(propan-2-yl)pyrrolidin-3-yl]-5-(propan-2-yl)-1,2-oxazole-3-carboxamide], which IC50 is on record?
A: 7.85 µM

Q: For `C[C@H]1CN(Cc2c[nH]c3ccccc23)C[C@H]1NC(=O)c1cc(C2CC2)on1` (racemic) [compound 194, (±)-cis-5-cyclopropyl-N-[1-(1H-indol-3-ylmethyl)-4-methyl-pyrrolidin-3-yl]-1,2-oxazole-3-carboxamide], which IC50 is on record?
A: 6.86 µM

Q: How did the IC50 turn out when `C[C@H]1CN(Cc2cc3ccccc3s2)C[C@H]1NC(=O)c1cc(C2CC2)on1` (racemic) [compound 195, (±)-cis-N-[1-(1-benzothiophen-2-ylmethyl)-4-methyl-pyrrolidin-3-yl]-5-cyclopropyl-1,2-oxazole-3-carboxamide] was run?
A: 33.4 µM

Q: For `CCc1nc(C)c(CN2C[C@H](C)[C@H](NC(=O)c3cc(C4CC4)on3)C2)[nH]1` (racemic) [compound 196, (±)-cis-5-cyclopropyl-N-(1-[(2-ethyl-4-methyl-1H-imidazol-5-yl)methyl]-4-methylpyrrolidin-3-yl)-1,2-oxazole-3-carboxamide], which IC50 is on record?
A: 35.5 µM
